From PMC6152131, “Pharmacokinetic Study of Biotransformation Products from an Anxiolytic Fraction of Tilia americana” (Molecules : A Journal of Synthetic Chemistry and Natural …, 2017)

Key:
[1] = Stability of flavonoids and biotransformation products in mouse plasma under different handling conditions; format: in vitro ADME, mice; conditions: for Accuracy Bias 0 h / Observed Conc. 0 h / Accuracy Bias 8 h / Observed Conc. 8 h / Accuracy Bias 24 h / Observed Conc. 24 h: room temperature (25 °C); for Observed Conc. 0 h / Observed Conc. 8 h / Observed Conc. 24 h / Observed Conc. Autosampler (4 °C; 8 h) / Observed Conc. Long-term (−70 °C; 1 month): n = 6; for Accuracy Bias Autosampler (4 °C; 8 h) / Accuracy Bias Long-term (−70°C; 1 month) / Observed Conc. Autosampler (4 °C; 8 h) / Observed Conc. Long-term (−70 °C; 1 month): storage stability
Experimental: (§1) Plasma dried pulverized samples were extracted with methanol (HPLC grade, Merck). The extracts were filtered with Teflon membrane dimensions 0.45 μm by 13 mm (Millex®-LCR); 20 μL of each filtered sample was injected into the HPLC equipment. The measurements were performed in a (Waters corporation, Milford, CT, USA) 2695 HPLC with a diode array detector (Waters 2996) and processed with the Empower Pro 1.0 software. A Chromolith Performance® RP-18e 100 × 4.6 mm (Merck KGaA, Darmstadt, Germany) was used. The mobile phase consisted of a mixture of acetonitrile and water with the proportion 55:45 and a flow rate of 1 mL/min. The concentrations of the flavonoids and the biotransformation products were obtained by comparison with a pre-built calibration curve at λ = 220 nm.
[…] The investigation enclosed here expected manipulation conditions during all the sample storage and process periods, which included the stability data from the freeze/thaw, bench-top, autosampler, and long–term stability tests.
For all stability studies, fresh QC samples were evaluated by using a freshly prepared standard curve for the measurements. The concentrations obtained from all the stability studies were compared with the fresh QC samples, and the percentage concentration deviation was calculated. The analytes were considered stable in the mouse plasma when the concentration difference between the freshly prepared samples and the stability samples was less than 15%.

[2] = Plasma concentration after a single oral dose of the anxiolytic fraction (HPLC); format: in vivo, ICR mice; conditions: oral 200 mg/kg anxiolytic fraction, immediately after administration and over 24 h
Experimental: Eleven groups of ten animals each were randomly formed. All animals were orally administered with 200 mg/kg of the active fraction. Animals were anaesthetized with ether, and blood samples were obtained from the retroorbital sinus with a heparinized capillary, each group was examined at different times (0, 5, 10, 15, 30, 60, 120, 240, 480, 720, and 1440 min) after the active fraction was administered. […] Then the plasma samples were frozen and lyophilized. The dry plasma was subsequently used to extract and measure the concentration of the flavonoids and biotransformation products.
as §1
To evaluate the suitability of the assay for the pharmacokinetic studies, 200 mg/kg of the active fraction was orally administered to the animals. Ten animals were used in each group at different times (0, 5, 10, 15, 30, 60, 120, 240, 480, 720, and 1440 min). Pharmacokinetic calculations were performed using the observed data. All data was subsequently processed using the PKSolver add-in program for Microsoft Excel written in Visual Basic for Applications. All values obtained were expressed in mean ± standard deviation.

[3] = system: intestinal epithelial cells; set-up: method as in PMID 25761590; conditions: compared with the aglycone kaempherol; cited from earlier work
[4] = high nominal conc. (rutin 7.00; quercetin glucoside, quercitrin, tiliroside 44.37; kaempferol 4.50; m-HPAA, p-HPAA, DOPAC 31.25 µg/mL)
[5] = low nominal conc. (rutin 1.75; quercetin glucoside, quercitrin, tiliroside 11.02; kaempferol 1.12; m-HPAA, p-HPAA, DOPAC 1.95 µg/mL)
[6] = medium nominal conc. (rutin 3.50; quercetin glucoside, quercitrin, tiliroside 22.18; kaempferol 2.24; m-HPAA, p-HPAA, DOPAC 7.81 µg/mL)
[7] = high nominal conc. (7.00; 44.37; 4.50; 31.25 µg/mL)
[8] = low nominal conc. (1.75; 11.02; 1.12; 1.95 µg/mL)
[9] = medium nominal conc. (3.50; 22.18; 2.24; 7.81 µg/mL)

Accuracy Bias 0 h ([1]; high nominal conc.) [%]	Observed Conc. 0 h [1, 4] [µg/mL]	Accuracy Bias 0 h ([1]; low nominal conc.) [%]	Observed Conc. 0 h [1, 5] [µg/mL]	Accuracy Bias 0 h ([1]; medium nominal conc.) [%]	Observed Conc. 0 h [1, 6] [µg/mL]	Accuracy Bias 8 h ([1]; high nominal conc.) [%]	Observed Conc. 8 h [1, 7] [µg/mL]	Accuracy Bias 8 h ([1]; low nominal conc.) [%]	Observed Conc. 8 h [1, 8] [µg/mL]	Accuracy Bias 8 h ([1]; medium nominal conc.) [%]	Observed Conc. 8 h [1, 9] [µg/mL]	Accuracy Bias 24 h ([1]; high nominal conc.) [%]	Accuracy Bias 24 h ([1]; low nominal conc.) [%]	Observed Conc. 24 h [1, 8] [µg/mL]	Accuracy Bias 24 h ([1]; medium nominal conc.) [%]	Observed Conc. 24 h [1, 9] [µg/mL]	Accuracy Bias Autosampler (4 °C; 8 h) ([1]; high nominal conc.) [%]	Observed Conc. Autosampler (4 °C; 8 h) [1, 7] [µg/mL]	Observed Conc. Long-term (−70 °C; 1 month) [1, 7] [µg/mL]	SMILES	other results
−4.64	4.45 ± 0.41	−3.29	1.16 ± 0.099	0.53	2.24 ± 0.20	−1.74	4.32 ± 0.21	−7.28	1.21 ± 0.83	4.60	2.15 ± 0.19	1.77	−2.28	1.15 ± 0.098	−8.12	2.42 ± 0.22	1.24	4.19 ± 0.37	4.35 ± 0.39	O=c1c(O)c(-c2ccc(O)cc2)oc2cc(O)cc(O)c12 [Kaempferol, kaempferol]	Accuracy Bias Long-term (−70°C; 1 month) ([1]; high nominal conc.): −2.47%; Accuracy Bias Autosampler (4 °C; 8 h) ([1]; low nominal conc.): −7.77%; Accuracy Bias Long-term (−70°C; 1 month) ([1]; low nominal conc.): −2.77%; Observed Conc. Autosampler (4 °C; 8 h) [1, 8]: 1.21 ± 0.07 µg/mL; Observed Conc. Long-term (−70 °C; 1 month) [1, 8]: 1.15 ± 0.10 µg/mL; Accuracy Bias Autosampler (4 °C; 8 h) ([1]; medium nominal conc.): 0.50%; Accuracy Bias Long-term (−70°C; 1 month) ([1]; medium nominal conc.): 4.13%; Observed Conc. Autosampler (4 °C; 8 h) [1, 9]: 2.24 ± 0.20 µg/mL; Observed Conc. Long-term (−70 °C; 1 month) [1, 9]: 2.15 ± 0.19 µg/mL; flavonoids found in the plasma after oral administration [2]: not found
2.86	43.10 ± 2.20	−1.24	11.16 ± 0.27	5.94	20.86 ± 1.35	4.28	42.48 ± 1.06	1.62	10.84 ± 0.67	6.02	20.84 ± 1.24	6.76	−2.98	11.35 ± 0.61	7.83	20.44 ± 1.65	−1.82	43.30 ± 2.02	41.60 ± 2.26	O=c1c(O[C@@H]2O[C@H](CO)[C@@H](O)[C@H](O)[C@H]2O)c(-c2ccc(O)c(O)c2)oc2cc(O)cc(O)c12 [Quercetin glucoside, quercetin glucoside]	Observed Conc. 24 h [1, 7]: 41.37 ± 1.17 µg/mL; Accuracy Bias Long-term (−70°C; 1 month) ([1]; high nominal conc.): −3.52%; Accuracy Bias Autosampler (4 °C; 8 h) ([1]; low nominal conc.): 2.40%; Accuracy Bias Long-term (−70°C; 1 month) ([1]; low nominal conc.): 6.22%; Observed Conc. Autosampler (4 °C; 8 h) [1, 8]: 11.22 ± 0.59 µg/mL; Observed Conc. Long-term (−70 °C; 1 month) [1, 8]: 11.41 ± 0.71 µg/mL; Accuracy Bias Autosampler (4 °C; 8 h) ([1]; medium nominal conc.): 5.48%; Accuracy Bias Long-term (−70°C; 1 month) ([1]; medium nominal conc.): 7.26%; Observed Conc. Autosampler (4 °C; 8 h) [1, 9]: 20.96 ± 1.31 µg/mL; Observed Conc. Long-term (−70 °C; 1 month) [1, 9]: 20.57 ± 2.06 µg/mL; flavonoids found in the plasma after oral administration [2]: not found
1.35	43.77 ± 4.28	4.59	10.54 ± 0.74	3.36	21.44 ± 2.13	−0.64	44.65 ± 4.37	6.26	10.33 ± 0.61	−2.95	22.84 ± 2.57	7.03	4.48	10.53 ± 0.79	7.14	20.60 ± 2.05	3.66	42.74 ± 3.40	44.26 ± 2.49	O=C(/C=C/c1ccc(O)cc1)OC[C@H]1O[C@@H](Oc2c(-c3ccc(O)cc3)oc3cc(O)cc(O)c3c2=O)[C@H](O)[C@@H](O)[C@@H]1O [Tiliroside, tiliroside]	Observed Conc. 24 h [1, 7]: 41.25 ± 2.04 µg/mL; Accuracy Bias Long-term (−70°C; 1 month) ([1]; high nominal conc.): 0.24%; Accuracy Bias Autosampler (4 °C; 8 h) ([1]; low nominal conc.): 3.97%; Accuracy Bias Long-term (−70°C; 1 month) ([1]; low nominal conc.): 5.54%; Observed Conc. Autosampler (4 °C; 8 h) [1, 8]: 10.58 ± 0.81 µg/mL; Observed Conc. Long-term (−70 °C; 1 month) [1, 8]: 10.40 ± 0.99 µg/mL; Accuracy Bias Autosampler (4 °C; 8 h) ([1]; medium nominal conc.): −3.45%; Accuracy Bias Long-term (−70°C; 1 month) ([1]; medium nominal conc.): 3.42%; Observed Conc. Autosampler (4 °C; 8 h) [1, 9]: 22.94 ± 2.25 µg/mL; Observed Conc. Long-term (−70 °C; 1 month) [1, 9]: 21.41 ± 1.82 µg/mL; flavonoids found in the plasma after oral administration [2]: not found; permeability to the intestinal epithelial cells [3]: completely impermeable

SMILES	Accuracy Bias 0 h ([1]; high nominal conc.) [%]	Observed Conc. 0 h [1, 4] [µg/mL]	Accuracy Bias 0 h ([1]; low nominal conc.) [%]	Observed Conc. 0 h [1, 5] [µg/mL]	Accuracy Bias 0 h ([1]; medium nominal conc.) [%]	Observed Conc. 0 h [1, 6] [µg/mL]	Accuracy Bias 8 h ([1]; high nominal conc.) [%]	Observed Conc. 8 h [1, 7] [µg/mL]	Accuracy Bias 8 h ([1]; low nominal conc.) [%]	Observed Conc. 8 h [1, 8] [µg/mL]	Accuracy Bias 8 h ([1]; medium nominal conc.) [%]	Observed Conc. 8 h [1, 9] [µg/mL]	Accuracy Bias 24 h ([1]; high nominal conc.) [%]	Accuracy Bias 24 h ([1]; low nominal conc.) [%]	Observed Conc. 24 h [1, 8] [µg/mL]	Accuracy Bias 24 h ([1]; medium nominal conc.) [%]	Observed Conc. 24 h [1, 9] [µg/mL]	Accuracy Bias Autosampler (4 °C; 8 h) ([1]; high nominal conc.) [%]	Observed Conc. Autosampler (4 °C; 8 h) [1, 7] [µg/mL]	Observed Conc. Long-term (−70 °C; 1 month) [1, 7] [µg/mL]	other results
C[C@@H]1O[C@@H](Oc2c(-c3ccc(O)c(O)c3)oc3cc(O)cc(O)c3c2=O)[C@H](O)[C@H](O)[C@H]1O [Quercitrin, quercitrin]	0.56	44.12 ± 2.82	−2.26	11.27 ± 0.75	−3.39	22.94 ± 1.87	−1.33	44.96 ± 1.84	−4.83	11.56 ± 0.78	−2.11	22.65 ± 1.85	1.05	0.30	10.99 ± 0.72	−4.15	23.11 ± 1.89	−0.17	44.44 ± 4.52	44.17 ± 2.95	Observed Conc. 24 h [1, 7]: 43.90 ± 1.61 µg/mL; Accuracy Bias Autosampler (4 °C; 8 h) ([1]; low nominal conc.): −5.47%; Observed Conc. Autosampler (4 °C; 8 h) [1, 8]: 11.62 ± 1.02 µg/mL; Observed Conc. Long-term (−70 °C; 1 month) [1, 8]: 11.64 ± 0.99 µg/mL; Accuracy Bias Autosampler (4 °C; 8 h) ([1]; medium nominal conc.): −2.73%; Observed Conc. Autosampler (4 °C; 8 h) [1, 9]: 22.79 ± 2.26 µg/mL; Observed Conc. Long-term (−70 °C; 1 month) [1, 9]: 22.49 ± 1.66 µg/mL; flavonoids found in the plasma after oral administration [2]: not found
